The values below come from patent US9487508B2, “SGC stimulators” (IRONWOOD PHARMACEUTICALS, INC., priority 2012, dated 2016).

For experiment [1], the system named is lambs with acute pulmonary hypertension. As to conditions: cited from earlier work; for pulmonary vasodilation / effect on mean arterial pressure / transpulmonary cGMP release / systemic arterial oxygenation: inhaled microparticles, awake lambs; for pulmonary vasodilation: U-46619 infused to mean pulmonary arterial pressure 35 mm Hg; for effect on mean arterial pressure / transpulmonary cGMP release / systemic arterial oxygenation: U-46619 infusion.

For experiment [2], the target named is T1, soluble guanylate cyclase (sGC) (Homo sapiens, UniProt Q02108+Q02153).
T1 construct: endogenously expressing soluble guanylate cyclase (sGC); endogenous in cells; host or cells: HEK293
T1 sequence (Q02153 1-619): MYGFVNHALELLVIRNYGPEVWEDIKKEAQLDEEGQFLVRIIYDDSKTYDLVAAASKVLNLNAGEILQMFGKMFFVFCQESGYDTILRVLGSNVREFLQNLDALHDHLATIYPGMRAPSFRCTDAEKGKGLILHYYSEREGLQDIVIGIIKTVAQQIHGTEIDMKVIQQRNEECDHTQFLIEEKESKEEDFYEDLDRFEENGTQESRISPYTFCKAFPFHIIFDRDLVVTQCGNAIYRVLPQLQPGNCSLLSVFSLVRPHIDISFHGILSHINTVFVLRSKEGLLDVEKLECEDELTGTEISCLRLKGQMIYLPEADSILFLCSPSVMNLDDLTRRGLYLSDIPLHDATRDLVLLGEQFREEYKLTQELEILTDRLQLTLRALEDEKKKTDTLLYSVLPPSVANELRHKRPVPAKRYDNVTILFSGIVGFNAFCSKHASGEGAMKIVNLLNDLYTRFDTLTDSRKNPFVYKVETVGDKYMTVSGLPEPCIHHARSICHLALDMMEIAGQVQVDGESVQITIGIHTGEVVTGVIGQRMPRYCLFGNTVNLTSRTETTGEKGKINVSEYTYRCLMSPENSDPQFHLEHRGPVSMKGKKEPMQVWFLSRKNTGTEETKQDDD
T1 sequence (Q02108 1-690): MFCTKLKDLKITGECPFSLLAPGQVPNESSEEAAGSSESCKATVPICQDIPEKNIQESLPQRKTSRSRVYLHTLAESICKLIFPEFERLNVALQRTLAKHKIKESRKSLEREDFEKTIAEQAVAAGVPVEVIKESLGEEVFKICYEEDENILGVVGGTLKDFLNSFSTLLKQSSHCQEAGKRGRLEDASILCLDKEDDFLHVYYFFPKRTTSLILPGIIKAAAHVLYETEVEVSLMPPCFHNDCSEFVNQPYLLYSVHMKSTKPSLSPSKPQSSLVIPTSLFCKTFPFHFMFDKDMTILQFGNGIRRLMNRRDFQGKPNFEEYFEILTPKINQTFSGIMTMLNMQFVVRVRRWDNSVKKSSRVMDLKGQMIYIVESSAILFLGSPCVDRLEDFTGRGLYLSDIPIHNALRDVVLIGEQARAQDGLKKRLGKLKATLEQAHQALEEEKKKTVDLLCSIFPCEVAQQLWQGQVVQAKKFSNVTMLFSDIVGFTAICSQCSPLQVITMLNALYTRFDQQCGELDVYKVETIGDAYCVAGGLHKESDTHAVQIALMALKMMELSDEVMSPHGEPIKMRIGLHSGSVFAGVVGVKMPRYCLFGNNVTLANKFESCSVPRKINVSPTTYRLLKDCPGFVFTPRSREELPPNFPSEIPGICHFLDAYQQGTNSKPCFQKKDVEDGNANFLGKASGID
The experiment is described as follows: sGC-HEK-cGMP assay with SNP incubation (LC/MS read-out). The format is cell-based. As to conditions: 10 μM SNP; for Emax at 1 µM: 1 μM compound, read-out: HEK assay (Percent Emax at 1 μM); for Emax at 1 µM / Emax at 10 µM / Emax at 30 µM: 100% = BAY 41-2272 at 10 μM with 100 μM SNP; for Emax at 10 µM: 10 μM compound, read-out: HEK assay (Percent Emax at 10 μM); for Emax at 30 µM: 30 μM compound, read-out: HEK assay (Percent Emax at 30 μM); for Emax: maximum of full concentration-response curve, top not fitted to 100%, relative to BAY 41-2272 control, read-out: HEK assay Emax-unconstrained (Percent); for EC50: top of curve not fitted to 100%, read-out: HEK assay EC50-unconstrained. The procedure: (Assay Run with SNP Incubation)
(§1) Human embryonic kidney cells (HEK293), endogenously expressing soluble guanylate cyclase (sGC), were used to evaluate the activity of test compounds. Compounds stimulating the sGC receptor should cause an increase in the intracellular concentration of cGMP. HEK 293 cells were seeded in Dulbecco's Modification of Eagle's Medium supplemented with fetal bovine serum (10% final) and L-glutamine (2 mM final) in a 200 μL volume at a density of 1×10^5 cells/well in a poly-D-lysine coated 96 well flat bottom plate and grown overnight at 37° C. Medium was aspirated and cells were washed with 1× Hank's Buffered Saline Salt Solution (200 μL). Cells were then incubated for 15 minutes at 37° C. with 200 μL of a 0.5 mM 3-isobutyl-1-methylxanthine (IBMX) solution. Test article and sodium nitroprusside solutions (x μM concentration for test article solution and 10 μM concentration for SNP solution; wherein x is one of the following concentrations);
were then added to the assay mixture (2 μL each) and the resulting mixture incubated at 37° C. for 10 minutes. After the 10 minute incubation, the assay mixture was aspirated and 0.1M HCl (200 μL) was added to the cells. The plate was incubated at 4° C. for 30 minutes in the 0.1M HCl to stop the reaction and lyse the cells. The plates were then centrifuged at 1,200 g for 5 minutes at room temperature. Supernatants were collected and transferred to a new flat bottom 96 well plate for analysis by HPLC-MS. Vehicle controls were carried out using DMSO (1%) solutions. A known sGC stimulator, BAY 41-2272, was used as the positive control. Samples were diluted with an equal volume of 1 M Ammonium Acetate (pH 7) to neutralize samples for better chromatography. A 2×cGMP standard solution was prepared in 0.1 M HCl and then diluted with an equal volume of 1 M Ammonium Acetate, with the following final concentrations in nM: 1024, 512, 256, 128, 64, 32, 16, 8, 4, 2, 1. cGMP concentrations in the test plates were determined from each sample using the LC/MS conditions shown in Table 2 below and the calculated cGMP standard curve. EC50 values were calculated from concentration-response curves generated with GraphPad Prism Software.
The biological activities of some of the compounds of Formula I or Formula Ib determined with the sGC-HEK assay with SNP incubation are summarized in Tables 3A and 3B.

In experiment [3] the target is T1, soluble guanylate cyclase (sGC). The experiment can be described thus: HEK whole cell assay using HTRF procedure (with SNP incubation). The format is cell-based. The conditions noted are these: HTRF cGMP read-out, 10 μM SNP; for Emax: relative to BAY 41-2272 at 10 μM with 100 μM SNP, read-out: HEK assay Emax-unconstrained (Percent); for EC50: top of curve not fitted to 100%, read-out: HEK assay EC50-unconstrained. How it is done:
Example 2B, HEK whole cell assay using HTRF procedure (Assay Run with SNP Incubation)
as §1, with “enzyme” for “receptor”
were then added to the assay mixture (2 μL each) and the resulting mixture incubated at 37° C. for 10 minutes. After the 10 minute incubation, the assay mixture was aspirated and 0.1M HCl (200 μL) was added to the cells. The plate was incubated at 4° C. for 30 minutes in the 0.1M HCl to stop the reaction and lyse the cells. The plates were then centrifuged at 1,200 g for 5 minutes at room temperature.
cGMP levels were determined using a cGMP HTRF assay (Cisbio Product #62GM2PEC). For each sample, 5 uL of HEK assay supernatant was diluted 1:5 in HTRF kit assay diluent and transferred to a well of the assay plate, and the HTRF assay was performed according to the HTRF kit manufacturer's instructions. Sample calculations were performed using high and low controls, where high control was supernatant from HEK assay performed in the presence of 10 uM Bay 41-2272+100 uM SNP, and the low control was the supernatant from the HEK assay performed in the presence of vehicle. A cGMP standard solution was prepared in 0.1 M HCl and diluted in order to perform a cGMP standard curve using the HTRF assay. Using Mean Ratio data from the HTRF assay, sample date were normalized according to the equation: 100*(Sample−Low Control)/(High Control−Low Control). Data were fit to a 3-parameter log agonist dose response (Top (% EMax), Bottom, log EC50) using Graphpad (Prism Software). Data in Table 3C was obtained using this modified assay procedure.
On the technique in general: TR-FRET usually uses a lanthanide donor and a delayed reading to cut background.

`Nc1nc(-c2nn(Cc3ccccc3F)c3ncccc23)ncc1C1CC1` [BAY 41-2272]: in experiment [1], the pulmonary vasodilation entry was “dose dependent pulmonary vasodilation”, the “effect on mean arterial pressure” value is on record as “without significant effect” and the “transpulmonary cGMP release” value is listed as “increased transpulmonary cGMP release”.

Take `Nc1nc(-c2nn(Cc3ccccc3F)c3ncccc23)nc(N)c1N1CCOCC1` [BAY 41-8543]: in experiment [1] (after inhaling microparticles, lambs), the “magnitude and duration of pulmonary vasodilation induced by iNO” value is recorded as “augmented”. In experiment [1], the pulmonary vasodilation result is recorded as “dose dependent pulmonary vasodilation”, the “effect on mean arterial pressure” value is given as “without significant effect”, the systemic arterial oxygenation entry is “increased systemic arterial oxygenation” and the “transpulmonary cGMP release” value is on record as “increased transpulmonary cGMP release”.

As to `O=C(O)CCCCN(CCc1ccccc1OCc1ccc(CCc2ccccc2)cc1)Cc1ccc(C(=O)O)cc1` [BAY 58-2667], in experiment [1] (inhaled microparticles after intravenous ODQ, lambs), the “pulmonary vasodilation and transpulmonary cGMP release after treatment with ODQ” value was “greatly enhanced”. Besides, in experiment [1], the pulmonary vasodilation result is recorded as “dose dependent pulmonary vasodilation”, the “effect on mean arterial pressure” value is “without significant effect”, the systemic arterial oxygenation result was “increased systemic arterial oxygenation” and the “transpulmonary cGMP release” value is recorded as “increased transpulmonary cGMP release”.

`O=c1[nH]c(-n2cc(-c3ccon3)c(Cc3ccccc3F)n2)ncc1F` [Compound I-1]: in experiment [2], the Emax at 1 µM was 60 to 80%, the Emax at 10 µM lay in the range of 80 to 100%, the maximal effect (Emax) at 30 µM is 80 to 100% and the Emax fell in the range of 80 to 100%. For the same molecule, the concentration giving a half-maximal response (EC50) in experiment [2] lay in the range of 0.01 to 0.1 µM.

In the case of `CC(C)[C@@H](C(=O)O)N(C)c1nc(-n2cc(-c3ccon3)c(Cc3ccccc3F)n2)ncc1F` [Compound I-4], in experiment [2], the maximum response (Emax) at 1 µM was in the range of 80 to 100%, the Emax at 10 µM was in the range of 100 to 120%, the Emax at 30 µM lay within 100 to 120% and the Emax was in the range of 100 to 120%. Also, in experiment [2], the EC50 was in the range of 0.01 to 0.1 µM.

Regarding `OCC(CO)Nc1nc(-n2cc(-c3ccon3)c(Cc3ccccc3F)n2)ncc1F` [Compound I-5], in experiment [3], the Emax lay within 80 to 100% and the EC50 lay within 0.1 to 0.5 µM.

For the molecule `Fc1ccccc1Cc1nn(-c2ncc(F)c(N3CCOCC3)n2)cc1-c1ccon1` [Compound I-6], in experiment [3], the Emax fell in the range of 80 to 100% and the EC50 is 0.1 to 0.5 µM.

On to `OCC(O)Cn1ccc2cnc(-n3cc(-c4ccon4)c(Cc4ccccc4F)n3)nc21` (stereo not shown) [Compound I-7], for which, in experiment [3], the Emax lay within 80 to 100% and the EC50 fell in the range of 0.1 to 0.5 µM.

Consider `Nc1ccnc(-n2cc(-c3ccon3)c(Cc3ccccc3F)n2)n1` [Compound I-9], for which, in experiment [2], the maximal effect (Emax) at 1 µM lay in the range of 60 to 80%, the Emax at 10 µM fell in the range of 80 to 100%, the Emax at 30 µM was 80 to 100% and the Emax was in the range of 80 to 100%. In experiment [2], the EC50 was 0.1 to 0.5 µM.

For the molecule `COc1nc(-n2cc(-c3ccon3)c(Cc3ccccc3F)n2)ncc1F` [Compound I-10], in experiment [2], the Emax at 1 µM lay within 20 to 40%, the Emax at 10 µM was 20 to 40%, the Emax at 30 µM is 20 to 40% and the Emax lay within 20 to 40%. For the same molecule, the concentration for a half-maximal effect (EC50) in experiment [2] lay within 0.5 to 1 µM.

Regarding `O=c1onc2cnc3ccccc3n12` [ODQ, 1H-[1,2,4]oxadiazolo[4,3-a]quinoxalin-1-one], the “pulmonary vasodilator effect of iNO” value in experiment [1] (intravenous administration, lambs) is “markedly reduced”.

Usually Emax stands for the size of the effect at its maximum, as opposed to the concentration needed. One may read the EC50 as the concentration at which the effect is half-maximal.
